Marks after values point to notes of the source that are not given here.
Experiments:
[1] = system: insecticide-resistant Q-biotype Bemisia tabaci strain CHLORAKA; experiment: Leaf-disc dip bioassay on adult whiteflies, insecticide-resistant Q-biotype strain (Example IX); assay type: in vivo
Excerpt: (§1) The common name associated with the Q-biotype of B. tabaci is the sweetpotato whitefly. […] The SUD-S strain of B. tabaci was the reference strain used in these tests and is a laboratory strain that is fully susceptible to all insecticide groups.
(§2) Adult B. tabaci were removed from rearing cages using a motorized aspirator and, after brief narcosis, 20-30 healthy female whiteflies were placed onto each treated leaf disc. Each unit was sealed with a close-fitting, ventilated lid. Once adults had recovered from narcosis, dishes were inverted so that the leaf disc was facing abaxial side down allowing the adult whiteflies to orient normally. All bioassays consisted of three replicates per concentration (including controls). Mortality was assessed at 48 hours after initiation of the test for the commercial standards and at 72 hours for Compounds 2, 4, and 5.
(§3) Resistance ratios were calculated using the following equation: […]

[2] = system: Bemisia tabaci SUD-S strain (susceptible laboratory strain); experiment: Leaf-disc dip bioassay on adult whiteflies, susceptible reference strain (Example VIII); assay type: in vivo
Method: (§4) The insecticidal activity of Compound 7 on adults from an insecticide-resistant, B-biotype Bemisia tabaci strain was assessed. The activity of commercial, neonicotinoid insecticides was also assessed and served as the basis for comparisons of relative efficacy on this insecticide-resistant whitefly strain.
(§5) The common name associated with the B-biotype of B. tabaci is the silverleaf whitefly. The strain used in these tests, “GUA-MIX”, was collected from a variety of crops situated in the Zacapa Valley of Guatemala in January of 2004. […] The SUD-S strain of B. tabaci was the reference strain used in these tests and is a laboratory strain that is fully susceptible to all insecticide groups.
(§6) A technical sample of Compound 7 was initially dissolved in 90% acetone in distilled water (containing 0.01% Agral) to obtain a 5000 ppm stock solution. […] Commercial formulations of imidacloprid (Confidor, 200SL), thiamethoxam (Actara, 25WG) and acetamiprid (Mospilan, 20SP) were diluted using distilled water containing 0.01% Agral.
as §2, with “Compound 7.” for “Compounds 2, 4, and 5.”
(§7) Compound 7 and the commercial neonicotinoid insecticides imidacloprid, thiamethoxam and acetamiprid were tested in discriminating concentration bioassays against both whitefly strains. More extensive concentration-response bioassays against both whitefly strains were conducted for Compound 7 and imidacloprid. […] Resistance ratios were calculated using the following equation: […]

[3] = system: insecticide-resistant B-biotype Bemisia tabaci strain GUA-MIX; experiment: Leaf-disc dip bioassay on adult whiteflies, neonicotinoid-resistant B-biotype strain (Example VIII); assay type: in vivo
Method: as §4, §5, §6
as §2, with “Compound 7.” for “Compounds 2, 4, and 5.”
as §7

[4] = system: field-collected populations of the whitefly, Bemisia tabaci; conditions: field-collected B. tabaci strains, late 1990s onward; literature; cited from earlier work
[5] = system: Myzus persicae US1L strain (susceptible); conditions: probit analysis; 72 h mortality data
Excerpt: (§8) Activity was compared to that of commercial insecticides representing major insecticide classes.
(§9) The common name associated with Myzus persicae is the green peach aphid. […] The “US1L” strain of M. persicae was the reference strain used in these tests.
(§10) Subsequent dilutions used a 10% solution of acetone in distilled water (containing 0.01% Agral®) as the diluent.
(§11) For M. persicae bioassays, discs cut from fully expanded leaves of Chinese cabbage (Brassica rapa ssp. Pekinensis cv. Won Bok) plants were dipped into serial dilutions of insecticide, allowed to air-dry, and placed onto agar-water (1%) beds in plastic Petri-dishes. Leaf discs immersed in the diluent only were used for controls. Adults were removed from rearing boxes and, using a fine camel-hair paint brush, 10 healthy, apterous females were placed onto each treated leaf disc and each unit sealed with a close-fitting, ventilated lid. All bioassays consisted of three replicates per dose (including controls). Mortality was scored at 24, 48 and 72 h following initial exposure for all compounds and the 72 h data were used for all analyses.
(§12) Mortality data were subjected to probit analysis to derive LC50 and LC90 estimates. Resistance ratios were calculated using the following equation: […]

[6] = system: Bemisia tabaci SUD-S strain (susceptible laboratory strain); experiment: Leaf-disc dip bioassay on adult whiteflies, susceptible reference strain (Example IX); assay type: in vivo; conditions: probit analysis; mortality at 72 hours for Compounds 2, 4, 5, 48 hours for commercial standards
Excerpt: as §1, §2, §3

[7] = system: insecticide-resistant Q-biotype Bemisia tabaci strain CHLORAKA; experiment: Leaf-disc dip bioassay on adult whiteflies, neonicotinoid-resistant Q-biotype strain (Example VII); assay type: in vivo
Method: (§13) The activity of commercial, neonicotinoid insecticides was also assessed and served as the basis for comparisons of relative efficacy on this insecticide-resistant whitefly strain.
as §1
(§14) Technical samples of Compounds 6 and 7 were initially dissolved in 90% acetone in distilled water (containing 0.01% Agral) to obtain 5000 ppm stock solutions. […] Commercial formulations of imidacloprid (Confidor, 200SL), thiamethoxam (Actara, 25WG) and acetamiprid (Mospilan, 20SP) were diluted using distilled water containing 0.01% Agral.
as §2, with “6” for “2, 4,”, “7.” for “5.”
(§15) Compounds 6, 7 and the commercial neonicotinoid insecticides imidacloprid, thiamethoxam and acetamiprid were tested in discriminating concentration bioassays against both whitefly strains. More extensive concentration-response bioassays against both whitefly strains were conducted for Compounds 6, 7 and imidacloprid. […] Resistance ratios were calculated using the following equation: […]

[8] = system: insecticide-resistant Myzus persicae strain 4013A; experiment: Leaf-disc dip bioassay on adult aphids, insecticide-resistant strain (Example IX)
Excerpt: as §8, §9, §10, §11, §12

[9] = system: Bemisia tabaci SUD-S strain (susceptible laboratory strain); experiment: Leaf-disc dip bioassay on adult whiteflies, susceptible reference strain (Example VII); assay type: in vivo
Method: as §13, §1, §14
as §2, with “6” for “2, 4,”, “7.” for “5.”
as §15

[10] = Bemisia tabaci, 48 h, read-out: Mortality, S Strain (SUD-S)
[11] = probit analysis, mortality at 72 hours for Compound 7, 48 hours for commercial standard
[12] = Bemisia tabaci, 48 h, read-out: Mortality, R Strain (GUA-MIX)
[13] = Bemisia tabaci, 48 h, read-out: Mortality, R Strain (CHLORAKA)
[14] = probit analysis, mortality at 72 hours for Compounds 6 and 7, 48 hours for commercial standard

In the case of `O=[N+]([O-])NC1=NCCN1Cc1ccc(Cl)nc1` [Imidacloprid, imidacloprid], the “Resistance Ratio” value ([1]; CHLORAKA (R) vs SUD-S (S) LC50) is reported as >800**, the “effect of exposure on adults of the CHLORAKA strain” value ([1]; imidacloprid at 1000 ppm) is reported as “largely unaffected” and the “LC50, R strain (CHLORAKA)” value ([1]; probit analysis, mortality at 72 hours for Compounds 2, 4, 5, 48 hours for commercial standards) is reported as greater than 1000 ppm. The mortality at 32 ppm [2, 10] was 74%, the mortality at 128 ppm [2, 10] was 87% and the “LC50, S strain (SUD-S)” value [2, 11] was 11.2 ppm. It also gave a mortality at 32 ppm [3, 12] of 8%, a mortality at 128 ppm [3, 12] of 39% and a mortality at 2048 ppm [3, 12] of 49%. For the same compound, the “Resistance Ratio” value ([3]; GUA-MIX (R) vs SUD-S (S) LC50) was >45.5**, the “effect on the majority of adults of the GUA-MIX strain” value ([3]; imidacloprid concentrations of 1000 ppm) was “largely unaffected” and the “LC50, R strain (GUA-MIX)” value [3, 11] was greater than 500.0 ppm. The “resistance of more recently-collected whitefly strains” value [4] was “more than 100 fold”, the “LC50, S strain (US1L)” value [5] was 0.9 ppm and the “LC50, S strain (SUD-S)” value [6] was 1.2 ppm. It also gave a mortality at 32 ppm [7, 13] of 2%, a mortality at 128 ppm [7, 13] of 2% and a mortality at 4096 ppm [7, 13] of 25%. The “Resistance Ratio” value ([7]; CHLORAKA (R) vs SUD-S (S) LC50) was >930**, the “effect of exposure on adults of the CHLORAKA strain” value ([7]; imidacloprid at 1000 ppm) was “largely unaffected” and the “LC50, R strain (CHLORAKA)” value [7, 14] was greater than 4000 ppm. The “Resistance Ratio” value ([8]; 4013A (R) vs US1L (S) LC50) was 17, the “LC50, R strain (4013A)” value ([8]; probit analysis, 72 h mortality data) was 15.3 ppm and the mortality at 32 ppm [9, 10] was 83%. The mortality at 128 ppm [9, 10] was 95% and the “LC50, S strain (SUD-S)” value [9, 14] was 4.3 ppm.
